Holding throughout (assay): NCI-60 cell line screen, 48 h
The subject of assay [1] is DU-145.
Assay [2] concerns Hs-578T.
For assay [3], the system named is SK-OV-3.
In assay [4] the test system is EKVX.
Assay [5] relates to PC-3.
Assay [6] relates to HL-60.
Assay [7] deals with NCI-H226.
Assay [8] has as its system HCC 2998.
Assay [9] has as its system HOP-62.
The subject of assay [10] is T47D.
For assay [11], the system named is RXF 393.
For assay [12], the system named is HT-29.
Assay [13] relates to UACC-257.
Assay [14] deals with SN12C.
Assay [15] deals with MOLT-4.
For assay [16], the system named is UO-31.
Assay [17] has as its system SNB-19.
In assay [18] the test system is NCI/ADR-RES.
In assay [19] the test system is HCT-15.
For assay [20], the system named is NCI-H522.

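Five concentrations, 48 hours, 96-well plates. Here, GI50 denotes the concentration required for 50% inhibition of growth.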 Active and inactive are the calls of the source. Rule as the data show it: active = GI50 up to about 1.1 µM and inactive = higher.

As to `CN(Nc1cc(=O)[nH]c(=O)[nH]1)c1ccccc1`, the GI50 was > 100 µM (inactive) in assay [1]; 52 µM (inactive) in assay [2]; > 100 µM (inactive) in [3]; > 100 µM (inactive) in assay [4]; > 100 µM (inactive) in assay [5]; > 100 µM (inactive) in assay [6]. For the same compound, the GI50 in assay [7], in assay [8], in [9], in [10], in [11] and in assay [12] was > 100 µM (inactive) in each case. The GI50 in [13], in [14], in assay [15], in assay [16], in assay [17] and in assay [18] was > 100 µM (inactive) throughout.
Take `COc1ccc(NCc2c(O)ccc3ccccc23)cc1`: the GI50 in assay [1] was 76 µM (inactive); in assay [2], 60.5 µM (inactive); in [3], > 100 µM (inactive); in [4], 18.9 µM (inactive); in [5], 17.1 µM (inactive); in assay [19], 13.7 µM. Further, the GI50 in assay [20] was 14.8 µM (inactive); in assay [9], 68.2 µM (inactive); in [10] it was 17.4 µM (inactive); in [11], 16.5 µM (inactive); in assay [12], 21.6 µM (inactive); in assay [13] it was 18.4 µM (inactive). Also, the GI50 in assay [14] is 34.4 µM (inactive); in [16] it was 11.3 µM (inactive); in assay [17] it was > 100 µM (inactive); in assay [18] it was 40.5 µM (inactive).
For `c1ccc(-c2cc(-c3cccs3)c(-c3cccs3)o2)cc1`, the GI50 in [1], in [2], in assay [3], in assay [4], in assay [5] and in assay [6] was > 100 µM (inactive) throughout. The GI50 in [7] was > 100 µM (inactive); in assay [19], more than 100 µM; in assay [8], > 100 µM (inactive); in [9], > 100 µM (inactive); in assay [10], > 100 µM (inactive); in assay [11], > 100 µM (inactive). For the same compound, the GI50 in assay [12], in [13], in assay [14], in [15], in [16] and in assay [17] was > 100 µM (inactive) in each case. The GI50 in [18] was > 100 µM (inactive).
As for `O=S(=O)(c1ccccc1)n1c(C(O)c2ccccc2)cc2ccccc21` (stereo unspecified), the GI50 is 33.9 µM (inactive) in assay [1]; 10.9 µM (inactive) in [2]; 15 µM (inactive) in [3]; 17.4 µM (inactive) in [4]; 15.7 µM (inactive) in assay [5]; 11.4 µM (inactive) in assay [6]. Further, the GI50 in [7] was 13.1 µM (inactive); in [19], 21.3 µM; in assay [8], 17.5 µM (inactive); in [9] it was 17.9 µM (inactive); in [10] it was 21.3 µM (inactive); in [11] it was 14.3 µM (inactive). Further, the GI50 was 13.4 µM (inactive) in assay [12]; 16.2 µM (inactive) in assay [13]; 36.4 µM (inactive) in assay [15]; 11.7 µM (inactive) in [16]; 13.7 µM (inactive) in [17]; 13.1 µM (inactive) in assay [18].

These data come from ChEMBL document CHEMBL1201862, “PubChem BioAssay data set” (2004).
